Our source for the IC50 and Kd values is patent US20250368666A1, “INDAZOLE COMPOUNDS” (TYRA BIOSCIENCES, INC., priority 2022, published 2025).

Test [1] has as its system HuH7 cell line (FGF19 amplification). As to the kind of experiment: Cancer cell line cell viability assay (Cell Titer-Glo), 120 hr. The format is cell-based. The note with it: Homo sapiens, Huh-7. The source says:
Experimental Purpose: To detect the change of intracellular ATP by Cell Titer-Glo® and to evaluate the inhibitory effect of the compounds on cancer cell lines by determining the in vitro IC50 value of the compounds.
Cell Titer-Glo® 2.0 Luminescent cell viability assay reagent was purchased from Promega (Madison, WI). KG-1, KATO-III, and MDA-MB-453 cell lines were purchased from American Type Culture Collection (Manassas, VA). RT112/84 cell line was purchased from Millipore-Sigma (St. Louis, MO). HuH7 cells were purchased from Seikisui Xenotech (Kansas City, KS). RT112/84 and MDA-MB-453 cells were cultured in RPMI1640 media supplemented with 10% fetal bovine serum. KG-1 and KATO-III cell lines were cultured in IMDM media supplemented with 20% FBS. HuH7 cells were cultured in IMDM media supplemented with 10% FBS. Cultures were maintained at 37° C. in a humidified atmosphere of 5% CO2 and 95% air.
Cell Viability Assay Procedure: Cells were plated in 96-well clear bottom/white plates (Corning #3903) at a range of densities depending on the optimal assay window (5,000-20,000 cells/well in […] of media), incubated overnight. The next day, test compound DMSO stock solutions were made at 10 mM and […] final concentration. Compounds were then added to cells in a 9-dose, 4-fold dilution series starting at 3 μM with an HP 300e Digital Dispenser (each dose was applied in triplicate). DMSO was backfilled to each well up to 301 nL total volume of test compound+DMSO, and a total of 301 nL DMSO was added to a control/no test compound well in triplicate. The cells in cell culture plates were incubated with the compounds at 37° C. and 5% CO2 for 72 hours-120 hours depending on the cell line. Then 50 μl of Cell Titer Glo 2.0 reagent was added to each well of the cell culture plates. The contents were covered from light and mixed on an orbital shaker at room temperature for minimum of 10 min. Luminescence was recorded by a Clariostar Plus Microplate Reader (BMG Labtech, Cary, NC). Cells were assessed as a percentage of DMSO only treated control cells. Curves were plotted and IC50 values were calculated using the GraphPad Prism 9 program based on a sigmoidal dose-response equation (log (inhibitor) vs. response—Variable slope, 4-parameter).
On the technique in general: ATP-based viability assays read luminescence as a measure of living cells.

The target in another test is T1, FGFR3 (V555M) (Homo sapiens, UniProt P22607, V555M).
T1 construct: made in house; host or cells: E. coli (BL21-derived), T7 phage
T1 sequence (P22607 23-806 V555M): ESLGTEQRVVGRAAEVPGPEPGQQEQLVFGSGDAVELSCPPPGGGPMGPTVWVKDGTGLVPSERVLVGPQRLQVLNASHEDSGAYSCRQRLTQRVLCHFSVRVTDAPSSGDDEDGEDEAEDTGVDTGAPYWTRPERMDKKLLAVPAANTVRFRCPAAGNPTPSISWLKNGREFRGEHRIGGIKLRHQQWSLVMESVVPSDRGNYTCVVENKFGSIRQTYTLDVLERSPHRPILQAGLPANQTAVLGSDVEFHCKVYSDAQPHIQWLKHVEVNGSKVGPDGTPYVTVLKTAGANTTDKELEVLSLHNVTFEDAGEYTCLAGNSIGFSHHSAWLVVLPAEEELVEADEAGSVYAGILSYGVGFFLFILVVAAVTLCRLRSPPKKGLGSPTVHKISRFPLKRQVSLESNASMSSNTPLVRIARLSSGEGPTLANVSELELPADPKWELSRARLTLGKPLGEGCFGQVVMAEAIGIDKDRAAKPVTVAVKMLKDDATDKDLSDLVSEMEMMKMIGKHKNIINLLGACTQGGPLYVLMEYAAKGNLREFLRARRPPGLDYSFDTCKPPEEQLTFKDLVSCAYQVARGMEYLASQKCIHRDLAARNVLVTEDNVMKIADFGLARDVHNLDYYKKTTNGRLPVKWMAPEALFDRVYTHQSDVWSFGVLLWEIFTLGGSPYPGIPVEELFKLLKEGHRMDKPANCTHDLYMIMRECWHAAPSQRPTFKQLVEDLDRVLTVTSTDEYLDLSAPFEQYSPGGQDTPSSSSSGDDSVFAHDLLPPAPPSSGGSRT
As to the kind of experiment: Kinase binding assay (kinase-tagged T7 phage, affinity beads, qPCR), Kd. The settings on record: V555M mutant; read-out: FGFR3 (V555M) (Kd nM). In short, it runs like this: (§1)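 First, phage lysates carrying tagged kinase are made in E. coli at 32° C. Next, they are combined with blocked biotin-ligand streptavidin beads and compound at 0.9% final DMSO. Finally, eluted kinase is measured by qPCR and Kd is fitted with the Hill equation.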
(Quantitative PCR measures a nucleic acid by following its amplification.)

The target of another test is T2, FGFR1 (Homo sapiens, UniProt P11362).
T2 construct: made in house; host or cells: E. coli (BL21-derived), T7 phage
T2 sequence (P11362 22-822): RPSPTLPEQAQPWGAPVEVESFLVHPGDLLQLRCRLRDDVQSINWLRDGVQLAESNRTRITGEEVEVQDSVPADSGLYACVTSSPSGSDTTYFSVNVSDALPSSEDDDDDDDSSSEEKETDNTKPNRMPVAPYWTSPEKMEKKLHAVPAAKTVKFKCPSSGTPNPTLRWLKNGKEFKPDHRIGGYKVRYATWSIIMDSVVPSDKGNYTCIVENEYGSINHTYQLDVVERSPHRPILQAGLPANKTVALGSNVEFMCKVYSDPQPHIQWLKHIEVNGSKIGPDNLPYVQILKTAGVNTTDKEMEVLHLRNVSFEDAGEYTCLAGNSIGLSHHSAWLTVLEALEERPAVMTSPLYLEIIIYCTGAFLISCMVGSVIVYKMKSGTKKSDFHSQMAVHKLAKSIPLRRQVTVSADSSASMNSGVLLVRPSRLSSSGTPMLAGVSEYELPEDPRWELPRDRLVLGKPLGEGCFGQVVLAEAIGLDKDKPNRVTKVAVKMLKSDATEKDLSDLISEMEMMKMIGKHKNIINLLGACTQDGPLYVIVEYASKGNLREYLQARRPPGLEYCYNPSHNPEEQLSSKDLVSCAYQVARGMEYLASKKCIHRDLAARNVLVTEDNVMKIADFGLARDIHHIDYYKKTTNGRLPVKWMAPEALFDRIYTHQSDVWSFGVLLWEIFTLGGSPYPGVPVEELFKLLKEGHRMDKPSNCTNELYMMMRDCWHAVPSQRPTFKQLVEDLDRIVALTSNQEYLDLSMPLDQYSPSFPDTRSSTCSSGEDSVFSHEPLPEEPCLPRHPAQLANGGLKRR
Described as above. The note with it: read-out: FGFR1 (Kd nM). In short, it runs like this:
as §1

In a further test the target is T3, FGFR4 (Homo sapiens, UniProt P22455).
T3 construct: made in house; host or cells: E. coli (BL21-derived), T7 phage
T3 sequence (P22455 22-802): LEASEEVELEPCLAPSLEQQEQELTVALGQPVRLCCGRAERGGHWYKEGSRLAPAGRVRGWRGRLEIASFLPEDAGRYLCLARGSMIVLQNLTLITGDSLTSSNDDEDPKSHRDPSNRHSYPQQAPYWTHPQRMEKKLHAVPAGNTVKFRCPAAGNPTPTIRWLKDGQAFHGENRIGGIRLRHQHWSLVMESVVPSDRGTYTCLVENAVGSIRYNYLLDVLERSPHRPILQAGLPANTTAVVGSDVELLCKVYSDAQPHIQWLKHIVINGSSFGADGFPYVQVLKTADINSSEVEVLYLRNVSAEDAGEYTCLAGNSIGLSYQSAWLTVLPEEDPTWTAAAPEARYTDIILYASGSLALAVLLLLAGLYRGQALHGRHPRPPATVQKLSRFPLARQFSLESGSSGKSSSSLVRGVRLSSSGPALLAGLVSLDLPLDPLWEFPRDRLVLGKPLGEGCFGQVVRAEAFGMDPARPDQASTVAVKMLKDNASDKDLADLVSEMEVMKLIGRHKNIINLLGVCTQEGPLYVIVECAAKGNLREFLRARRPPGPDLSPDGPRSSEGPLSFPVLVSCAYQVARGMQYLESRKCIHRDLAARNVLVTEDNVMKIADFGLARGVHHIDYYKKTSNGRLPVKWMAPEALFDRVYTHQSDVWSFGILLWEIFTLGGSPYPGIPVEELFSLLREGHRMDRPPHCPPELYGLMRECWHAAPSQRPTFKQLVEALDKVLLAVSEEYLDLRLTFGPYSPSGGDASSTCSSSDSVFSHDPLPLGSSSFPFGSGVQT
The test is described as above. The settings on record: read-out: FGFR4 (Kd nM). In short, it runs like this:
as §1

Another test concerns the target T4, FGFR3 (Homo sapiens, UniProt P22607).
T4 construct: made in house; host or cells: E. coli (BL21-derived), T7 phage
The test is described as above. The note with it: read-out: FGFR3 (Kd nM). In short, it runs like this:
as §1

In another test the target is T5, FGFR2 (Homo sapiens, UniProt P21802).
T5 construct: made in house; host or cells: E. coli (BL21-derived), T7 phage
T5 sequence (P21802 22-821): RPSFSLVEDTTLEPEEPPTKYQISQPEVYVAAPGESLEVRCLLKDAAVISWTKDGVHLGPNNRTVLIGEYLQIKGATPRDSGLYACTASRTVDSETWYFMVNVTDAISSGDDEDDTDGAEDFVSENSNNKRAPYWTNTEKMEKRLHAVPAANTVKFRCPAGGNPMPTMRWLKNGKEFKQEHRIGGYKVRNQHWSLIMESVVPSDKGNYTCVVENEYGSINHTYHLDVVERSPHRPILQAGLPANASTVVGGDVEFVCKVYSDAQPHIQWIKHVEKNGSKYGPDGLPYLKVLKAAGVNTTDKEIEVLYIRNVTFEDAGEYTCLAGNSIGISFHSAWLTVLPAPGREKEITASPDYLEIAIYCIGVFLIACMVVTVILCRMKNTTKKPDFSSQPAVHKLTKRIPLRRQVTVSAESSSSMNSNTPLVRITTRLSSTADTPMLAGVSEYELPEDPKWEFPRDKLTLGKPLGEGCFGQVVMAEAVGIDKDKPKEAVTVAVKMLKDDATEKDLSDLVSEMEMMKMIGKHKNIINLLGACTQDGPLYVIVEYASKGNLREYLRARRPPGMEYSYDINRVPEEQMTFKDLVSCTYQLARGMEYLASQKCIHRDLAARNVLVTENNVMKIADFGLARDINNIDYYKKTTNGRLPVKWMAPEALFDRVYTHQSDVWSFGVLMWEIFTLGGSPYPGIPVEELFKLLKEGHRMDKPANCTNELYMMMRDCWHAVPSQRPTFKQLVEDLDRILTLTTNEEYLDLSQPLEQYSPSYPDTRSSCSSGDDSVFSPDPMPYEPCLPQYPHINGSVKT
The test is described as above. The settings on record: read-out: FGFR2 (Kd nM). In short, it runs like this: as §1

Setting [2] is: kinase binding assay, 11-point 3-fold dilution series.

The structures appear in SMILES notation. Counter-ions that a name gives are not always drawn. Like-named read-outs stand apart in the source and are kept apart here.

T4 sequence (P22607 23-806): as the sequence (P22607 23-806 V555M) above, with M533V counted along it

In test [1], `COc1cc2[nH]nc(-c3cnc(N4CC(C)(CS(C)(=O)=O)C4)c(C#N)c3)c2cc1O[C@@H](C)c1c(Cl)cncc1Cl` [Example 332, (S)-5-(5-(1-(3,5-dichloropyridin-4-yl)ethoxy)-6-methoxy-1H-indazol-3-yl)-2-(3-methyl-3-((methyl-sulfonyl)meth-yl)azetidin-1-yl)nicotinonitrile] displayed an IC50 of 200 to 1000 nM. The Kd on FGFR3 (V555M) is 300 to 1000 nM; at FGFR1, > 1000 nM; on FGFR4, 1 to 50 nM; at FGFR3, 300 to 1000 nM; on FGFR2, > 1000 nM.
`COc1cc2[nH]nc(-c3cnc(N4CC(N)(Cc5ccn(C)n5)C4)c(C#N)c3)c2cc1O[C@H](C)c1c(Cl)cncc1Cl` [Example 366, (R)-2-(3-amino-3-((1-methyl-1H-pyrazol-3-yl)methyl)azetidin-1-yl)-5-(5-(1-(3,5-dichloropyridin-4-yl)ethoxy)-6-methoxy-1H-indazol-3-yl)nicotinonitrile] yielded an IC50 in test [1] of 0.1 to 50 nM. The Kd at FGFR1, at FGFR4, at FGFR3 and on FGFR2 was 1 to 50 nM in each case.
Consider `COc1cc2[nH]nc(-c3cnc(N4CC[C@@](C)(NCC5CC5)C4)c(C#N)c3)c2cc1O[C@H](C)c1c(Cl)cncc1Cl` [Example 409, 2-((R)-3-((cyclo-propylmethyl)-amino)-3-methylpyrrolidin-1-yl)-5-(5-((R)-1-(3,5-dichloropyridin-4-yl)ethoxy)-6-methoxy-1H-indazol-3-yl)nicotinonitrile], for which the concentration for half-maximal inhibition (IC50) in test [1] is 0.1 to 50 nM. For the same molecule, the Kd at FGFR1 (setting [2]), on FGFR4 (setting [2]), at FGFR3 (setting [2]) and on FGFR2 (setting [2]) was 1 to 50 nM in each case.
For the molecule `CCC1(NCC2CC2)CN(c2ncc(-c3n[nH]c4cc(OC)c(O[C@H](C)c5c(Cl)cncc5Cl)cc34)cc2C#N)C1` [Example 348, (R)-2-(3-((Cyclopropylmethyl)amino)-3-ethylazetidin-1-yl)-5-(5-(1-(3,5-dichloropyridin-4-yl)ethoxy)-6-methoxy-1H-indazol-3-yl)nicotinonitrile dihydrochloride], the IC50 in test [1] fell in the range of 0.1 to 50 nM. Further, the Kd on FGFR1, on FGFR4, on FGFR3 and on FGFR2 was 1 to 50 nM each time.
Consider `COc1cc2[nH]nc(-c3cc(C#N)c(N4CC(C)(NCC5CC5)C4)nn3)c2cc1O[C@H](C)c1c(Cl)cncc1Cl` [Example 347, (R)-3-(3-((cyclopropyl-methyl)amino)-3-methylazetidin-1-yl)-6-(5-(1-(3,5-dichloropyridin-4-yl)ethoxy)-6-methoxy-1H-indazol-3-yl)pyridazine-4-carbonitrile], for which, in test [1], the IC50 was in the range of 0.1 to 50 nM. The Kd at FGFR1, at FGFR4, on FGFR3 and on FGFR2 was 1 to 50 nM throughout.
`COc1cc2[nH]nc(-c3cnc(N4CC(C)(O)C4)c(C#N)c3)c2cc1O[C@H](C)c1c(Cl)cncc1Cl` [Example 370, 5-[5-[(1R)-1-(3,5-dichloro-4-pyridyl)ethoxy]-6-methoxy-1H-indazol-3-yl]-2-(3-hydroxy-3-methyl-azetidin-1-yl)pyridine-3-carbonitrile]: the IC50 in test [1] was 0.1 to 50 nM. Further, the Kd on FGFR1, on FGFR4, at FGFR3 and at FGFR2 was 1 to 50 nM throughout.
For `COc1cc2[nH]nc(-c3cnc(N4CCC(C)(N)CC4)c(C#N)c3)c2cc1O[C@H](C)c1c(Cl)cncc1Cl` [Example 368, (R)-2-(4-amino-4-methylpiperidin-1-yl)-5-(5-(1-(3,5-dichloropyridin-4-yl)ethoxy)-6-methoxy-1H-indazol-3-yl)nicotinonitrile], the IC50 in test [1] lay within 0.1 to 50 nM. Also, the Kd at FGFR1, at FGFR4, on FGFR3 and at FGFR2 was 1 to 50 nM throughout.
Take `COc1cc2[nH]nc(-c3cnc(N4CC[C@](C)(NCC5CC5)C4)c(C#N)c3)c2cc1O[C@H](C)c1c(Cl)cncc1Cl` [Example 410, 2-((S)-3-((cyclopropyl-methyl)-amino)-3-methylpyrrolidin-1-yl)-5-(5-((R)-1-(3,5-dichloropyridin-4-yl)ethoxy)-6-methoxy-1H-indazol-3-yl)nicotinonitrile]: in test [1], the IC50 lay in the range of 0.1 to 50 nM. Moreover, the Kd on FGFR1 (setting [2]), on FGFR4 (setting [2]), on FGFR3 (setting [2]) and on FGFR2 (setting [2]) was 1 to 50 nM throughout.
Take `COc1cc2[nH]nc(-c3cnc(N4CCC(C)(NCC5CC5)CC4)c(C#N)c3)c2cc1O[C@H](C)c1c(Cl)cncc1Cl` [Example 411, (R)-2-(4-((cyclo-propylmethyl)amino)-4-methylpiperidin-1-yl)-5-(5-(1-(3,5-dichloropyridin-4-yl)ethoxy)-6-methoxy-1H-indazol-3-yl)nicotinonitrile]: in test [1], the IC50 was 0.1 to 50 nM.
`COc1cc2[nH]nc(-c3cc(C#N)c(N4CC(C)(N(C)C)C4)nn3)c2cc1O[C@H](C)c1c(Cl)cncc1Cl` [Example 349, (R)-6-(5-(1-(3,5-dichloropyridin-4-yl)ethoxy)-6-methoxy-1H-indazol-3-yl)-3-(3-(dimethylamino)-3-methylazetidin-1-yl)pyridazine-4-carbonitrile] returned an IC50 in test [1] of 0.1 to 50 nM. Further, the Kd at FGFR1, at FGFR4, on FGFR3 and on FGFR2 was 1 to 50 nM each time.
Regarding `COc1cc2[nH]nc(-c3cnc(N4CC(CC#N)(N(C)C(C)C)C4)c(C#N)c3)c2cc1O[C@H](C)c1c(Cl)cncc1Cl` [Example 358, (R)-2-(3-(cyanomethyl)-3-(isopropyl(methyl)-amino)azetidin-1-yl)-5-(5-(1-(3,5-dichloropyridin-4-yl)ethoxy)-6-methoxy-1H-indazol-3-yl)nicotinonitrile], the IC50 in test [1] fell in the range of 0.1 to 50 nM. Besides, the Kd on FGFR1 fell in the range of 1 to 50 nM; at FGFR4, 1 to 50 nM; at FGFR3, 1 to 50 nM; at FGFR2, 50 to 300 nM.
Consider `COc1cc2[nH]nc(-c3cnc(N4CC(CC#N)(NCC5CC5)C4)c(C#N)c3)c2cc1O[C@H](C)c1c(Cl)cnc(C)c1Cl` [Example 350, (R)-2-(3-(Cyanomethyl)-3-((cyclopropyl-methyl)ami-no)azetidin-1-yl)-5-(5-(1-(3,5-dichloro-2-methylpyridin-4-yl)ethoxy)-6-methoxy-1H-indazol-3-yl)nicotinonitrile], for which the IC50 in test [1] is 0.1 to 50 nM. In addition, the Kd on FGFR1 was 50 to 300 nM; at FGFR4, 1 to 50 nM; at FGFR3 it was 1 to 50 nM; on FGFR2 it was 1 to 50 nM.
Molecule `COc1cc2[nH]nc(-c3cnc(N4CC(C)(NCC(C)C)C4)c(C#N)c3)c2cc1O[C@H](C)c1c(Cl)cnc(C)c1Cl` [Example 355, 5-[5-[(1R)-1-(3,5-dichloro-2-methyl-4-pyridyl)ethoxy]-6-methoxy-1H-indazol-3-yl]-2-[3-(isobutylamino)-3-methyl-azetidin-1-yl]pyridine-3-carbonitrile] yielded an IC50 in test [1] of 50 to 200 nM. Moreover, the Kd at FGFR1 lay in the range of 1 to 50 nM; on FGFR4 it was 1 to 50 nM; on FGFR3, 1 to 50 nM; at FGFR2, 50 to 300 nM.
In the case of `COc1cc2[nH]nc(-c3cc(C#N)c(N4CC(C)(NCC(C)C)C4)nn3)c2cc1O[C@H](C)c1c(Cl)cncc1Cl` [Example 342, (R)-6-(5-(1-(3,5-dichloropyridin-4-yl)ethoxy)-6-methoxy-1H-indazol-3-yl)-3-(3-(isobutylamino)-3-methylazetidin-1-yl)pyridazine-4-carbonitrile], in test [1], the IC50 is 50 to 200 nM. In addition, the Kd at FGFR1, at FGFR4, on FGFR3 and on FGFR2 was 1 to 50 nM each time.

What is called IC50 is the concentration needed to halve the response being measured. The term Kd denotes the equilibrium constant for the complex coming apart.
